Experimental data taken from ChEMBL document CHEMBL1201861, “Genomics of Drug Sensitity in Cancer screening data, Wellcome Trust Sanger Institute”.

Columns and labels:
Test in all cases: cells
Assay type in all cases: functional, cell-based, Homo sapiens
D-247MG = settings: Homo sapiens, D-247MG
Description: SANGER: Inhibition of human D-247MG cell growth in a cell viability assay.

D283 Med = settings: Homo sapiens, D283 Med
Description: SANGER: Inhibition of human D-283MED cell growth in a cell viability assay.

DMS-114 = settings: Homo sapiens, DMS-114
Daudi = settings: Homo sapiens, Daudi;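 note: growth inhibition of Daudi cells, read out by a viability assay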
Description: SANGER: Inhibition of human Daudi cell growth in a cell viability assay.

ES1 = settings: Homo sapiens, ES1;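 note: growth inhibition of ES1 cells, read out with a cell viability assay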
Description: SANGER: Inhibition of human ES1 cell growth in a cell viability assay.

HC-1 = settings: Homo sapiens, HC-1;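 note: growth inhibition of HC-1 cells measured by a cell viability assay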
Description: SANGER: Inhibition of human HC-1 cell growth in a cell viability assay.

HT = settings: Homo sapiens, HT
Description: SANGER: Inhibition of human HT cell growth in a cell viability assay.

LAN-6 = settings: Homo sapiens, LAN-6;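 note: growth inhibition of LAN-6 cells, determined with a cell viability assay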
Description: SANGER: Inhibition of human LAN-6 cell growth in a cell viability assay.

MDA-MB-134-VI = settings: Homo sapiens, MDA-MB-134-VI
Description: SANGER: Inhibition of human MDA-MB-134-VI cell growth in a cell viability assay.

NALM-6 = settings: Homo sapiens, NALM-6;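 note: growth inhibition of NALM-6 cells, read out with a cell viability assay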
Description: SANGER: Inhibition of human NALM-6 cell growth in a cell viability assay.

NCI-H1882 = settings: Homo sapiens, NCI-H1882;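 note: growth inhibition of the cell line, determined with a viability assay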
Description: SANGER: Inhibition of human NCI-H1882 cell growth in a cell viability assay.

NCI-H524 = settings: Homo sapiens, NCI-H524;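 note: growth inhibition of human NCI-H524 cells, read out through a cell viability assay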
Description: SANGER: Inhibition of human NCI-H524 cell growth in a cell viability assay.

NCI-H526 = settings: Homo sapiens, NCI-H526;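 note: growth inhibition of the human NCI-H526 cell line, measured by a cell viability assay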
Description: SANGER: Inhibition of human NCI-H526 cell growth in a cell viability assay.

NCI-H720 = settings: Homo sapiens, NCI-H720;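 note: growth inhibition of human NCI-H720 cells determined by a cell viability assay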
Description: SANGER: Inhibition of human NCI-H720 cell growth in a cell viability assay.

NCI-H747 = settings: Homo sapiens, NCI-H747;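 note: growth inhibition of human NCI-H747 cells, read out by a cell viability assay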
Description: SANGER: Inhibition of human NCI-H747 cell growth in a cell viability assay.

NCI-H748 = settings: Homo sapiens, NCI-H748;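 note: growth inhibition of NCI-H748 cells, measured by a cell viability assay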
Description: SANGER: Inhibition of human NCI-H748 cell growth in a cell viability assay.

RPMI-8226 = settings: Homo sapiens, RPMI-8226
Description: SANGER: Inhibition of human RPMI-8226 cell growth in a cell viability assay.

SCC-15 = settings: Homo sapiens, SCC-15;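 note: growth inhibition of SCC-15 cells, read out with a cell viability assay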
Description: SANGER: Inhibition of human SCC-15 cell growth in a cell viability assay.

SK-PN-DW = settings: Homo sapiens, SK-PN-DW;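 note: growth inhibition measured with a viability assay on these cells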
Description: SANGER: Inhibition of human SK-PN-DW cell growth in a cell viability assay.

SR = settings: Homo sapiens, SR
Description: SANGER: Inhibition of human SR cell growth in a cell viability assay.

SUP-T1 = settings: Homo sapiens, SUP-T1;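 note: growth inhibition of human SUP-T1 cells, read out as cell viability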
Description: SANGER: Inhibition of human SUP-T1 cell growth in a cell viability assay.

A498 = settings: Homo sapiens, A498;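 note: growth inhibition of human A498 cells, read out with a cell viability assay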
Description: SANGER: Inhibition of human A498 cell growth in a cell viability assay.

ARH-77 = settings: Homo sapiens, ARH-77;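 note: growth inhibition of ARH-77 cells, read out by a cell viability assay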
Description: SANGER: Inhibition of human ARH-77 cell growth in a cell viability assay.

CAL-148 = settings: Homo sapiens, CAL-148
Description: SANGER: Inhibition of human CAL-148 cell growth in a cell viability assay.

TE-10 = settings: Homo sapiens, TE-10;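 note: growth inhibition of TE-10 cells, measured by a cell viability assay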
Description: SANGER: Inhibition of human TE-10 cell growth in a cell viability assay.

TE-15 = settings: Homo sapiens, TE-15;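 note: cell viability readout of growth inhibition in TE-15 cells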
Description: SANGER: Inhibition of human TE-15 cell growth in a cell viability assay.

U-698-M = settings: Homo sapiens, U-698-M
Description: SANGER: Inhibition of human U-698-M cell growth in a cell viability assay.

IA-LM = settings: Homo sapiens, IA-LM;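 note: cell viability assay measuring growth inhibition of human IA-LM cells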
Description: SANGER: Inhibition of human IA-LM cell growth in a cell viability assay.

TE-11 = settings: Homo sapiens, TE-11;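 note: growth inhibition of human TE-11 cells, read out by a cell viability assay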
Description: SANGER: Inhibition of human TE-11 cell growth in a cell viability assay.

Row | SMILES | IC50 (D-247MG) | IC50 (D283 Med) | IC50 (DMS-114) | IC50 (Daudi) | IC50 (ES1) | IC50 (HC-1) | IC50 (HT) | IC50 (LAN-6) | IC50 (NCI-H1882) | IC50 (NCI-H524) | IC50 (NCI-H526) | IC50 (NCI-H720) | IC50 (NCI-H747) | IC50 (NCI-H748) | IC50 (SCC-15) | IC50 (SK-PN-DW) | IC50 (SR) | IC50 (SUP-T1) | IC50 (ARH-77) | IC50 (TE-10) | also measured
1 | COc1cc2ncn(-c3cc(OCc4ccccc4S(C)(=O)=O)c(C#N)s3)c2cc1OC [GSK-319347A] | > 5 µM | > 5 µM | > 5 µM | > 5 µM | > 5 µM | > 5 µM | > 5 µM | > 5 µM | > 5 µM | > 5 µM | > 5 µM | > 5 µM | > 5 µM | > 5 µM | > 5 µM | > 5 µM | > 5 µM | > 5 µM | > 5 µM | > 5 µM | IC50 (MDA-MB-134-VI): > 5 µM; IC50 (NALM-6): > 5 µM; IC50 (RPMI-8226): > 5 µM; IC50 (A498): > 5 µM; IC50 (CAL-148): > 5 µM; IC50 (TE-15): > 5 µM; IC50 (U-698-M): > 5 µM
2 | CC[C@H](CO)Nc1nc(NCc2ccccc2)c2ncn(C(C)C)c2n1 [SELICICLIB] | 12.4 µM | > 16 µM | > 16 µM | > 16 µM | > 16 µM | > 16 µM | > 16 µM | > 16 µM | > 16 µM | > 16 µM | > 16 µM | > 16 µM | > 16 µM | > 16 µM | > 16 µM | > 16 µM | > 16 µM | > 16 µM | > 16 µM | > 16 µM | IC50 (MDA-MB-134-VI): > 16 µM; IC50 (NALM-6): > 16 µM; IC50 (RPMI-8226): > 16 µM; IC50 (CAL-148): > 16 µM; IC50 (TE-15): > 16 µM; IC50 (U-698-M): > 16 µM
3 | CC(=O)O[C@H]1C(=O)[C@@]2(C)[C@H]([C@H](OC(=O)c3ccccc3)[C@]3(O)C[C@H](OC(=O)[C@H](O)[C@@H](NC(=O)c4ccccc4)c4ccccc4)C(C)=C1C3(C)C)[C@]1(OC(C)=O)CO[C@@H]1C[C@@H]2O [PACLITAXEL] | > 0.102 µM | > 0.102 µM | 0.025 µM | 0.0171 µM | 0.0129 µM | 0.00721 µM | 0.0809 µM | > 0.102 µM | 0.0642 µM | 0.0353 µM | 0.0289 µM | > 0.102 µM | 0.0293 µM | > 0.102 µM | > 0.102 µM | 0.0111 µM | 0.0103 µM | > 0.102 µM | 0.026 µM | 0.00154 µM | IC50 (IA-LM): 0.0028 µM; IC50 (MDA-MB-134-VI): > 0.102 µM; IC50 (NALM-6): 0.0121 µM; IC50 (RPMI-8226): 0.011 µM; IC50 (A498): > 0.102 µM; IC50 (CAL-148): 0.0544 µM; IC50 (TE-11): 0.00123 µM; IC50 (TE-15): 0.000287 µM; IC50 (U-698-M): > 0.102 µM
4 | CCN(CC)CCNC(=O)c1c(C)[nH]c(/C=C2\C(=O)Nc3ccc(F)cc32)c1C [SUNITINIB] | > 8 µM | > 8 µM | > 8 µM | > 8 µM | > 8 µM | 5.43 µM | > 8 µM | > 8 µM | > 8 µM | > 8 µM | > 8 µM | > 8 µM | > 8 µM | > 8 µM | > 8 µM | > 8 µM | 1.55 µM | > 8 µM | 7.54 µM | 2.34 µM | IC50 (IA-LM): > 8 µM; IC50 (MDA-MB-134-VI): > 8 µM; IC50 (NALM-6): 2.9 µM; IC50 (RPMI-8226): 7.51 µM; IC50 (A498): > 8 µM; IC50 (CAL-148): > 8 µM; IC50 (TE-11): 1.84 µM; IC50 (TE-15): 0.508 µM; IC50 (U-698-M): > 8 µM
5 | Cc1ccc(-c2c(C(=O)CCl)n(CCCO)c3ncnc(N)c23)cc1 | > 4 µM | > 4 µM | > 4 µM | > 4 µM | > 4 µM | > 4 µM | > 4 µM | > 4 µM | > 4 µM | > 4 µM | > 4 µM | > 4 µM | > 4 µM | > 4 µM | > 4 µM | > 4 µM | > 4 µM | > 4 µM | > 4 µM | > 4 µM | IC50 (IA-LM): 3.21 µM; IC50 (MDA-MB-134-VI): > 4 µM; IC50 (NALM-6): > 4 µM; IC50 (RPMI-8226): > 4 µM; IC50 (A498): > 4 µM; IC50 (CAL-148): > 4 µM; IC50 (TE-11): > 4 µM; IC50 (TE-15): 1.82 µM; IC50 (U-698-M): > 4 µM
6 | OCCCNc1cc(-c2ccnc(Nc3cccc(Cl)c3)n2)ccn1 | > 0.256 µM | > 0.256 µM | > 0.256 µM | 0.0553 µM | > 0.256 µM | 0.0522 µM | 0.0662 µM | 0.149 µM | > 0.256 µM | > 0.256 µM | > 0.256 µM | > 0.256 µM | 0.0473 µM | 0.0764 µM | > 0.256 µM | 0.0902 µM | 0.0255 µM | > 0.256 µM | 0.0819 µM | 0.0382 µM | IC50 (IA-LM): 0.0932 µM; IC50 (MDA-MB-134-VI): > 0.256 µM; IC50 (NALM-6): 0.0468 µM; IC50 (RPMI-8226): 0.129 µM; IC50 (A498): > 0.256 µM; IC50 (CAL-148): 0.199 µM; IC50 (TE-11): 0.0342 µM; IC50 (TE-15): 0.0394 µM; IC50 (U-698-M): > 0.256 µM
7 | N[C@@H](CSC(c1ccccc1)(c1ccccc1)c1ccccc1)C(=O)O [S-TRITYL-L-CYSTEINE] | > 5.12 µM | > 5.12 µM | 3.26 µM | 1.17 µM | 1.64 µM | 1.05 µM | 2.69 µM | 3.69 µM | 2.08 µM | 1.03 µM | 4.45 µM | > 5.12 µM | > 5.12 µM | > 5.12 µM | > 5.12 µM | 1.35 µM | 0.718 µM | > 5.12 µM | 3.54 µM | 0.73 µM | IC50 (IA-LM): 1.39 µM; IC50 (MDA-MB-134-VI): > 5.12 µM; IC50 (NALM-6): 0.676 µM; IC50 (RPMI-8226): 1.28 µM; IC50 (A498): > 5.12 µM; IC50 (CAL-148): 4.35 µM; IC50 (TE-11): 0.451 µM; IC50 (TE-15): 1.02 µM; IC50 (U-698-M): > 5.12 µM
8 | COc1cc(-c2nn([C@H]3CC[C@H](N4CCN(C(C)=O)CC4)CC3)c3ncnc(N)c23)ccc1NC(=O)c1cc2ccccc2n1C | > 5.12 µM | > 5.12 µM | > 5.12 µM | > 5.12 µM | > 5.12 µM | 3.19 µM | > 5.12 µM | > 5.12 µM | > 5.12 µM | > 5.12 µM | > 5.12 µM | > 5.12 µM | 2.86 µM | > 5.12 µM | > 5.12 µM | > 5.12 µM | > 5.12 µM | > 5.12 µM | > 5.12 µM | 2.36 µM | IC50 (IA-LM): > 5.12 µM; IC50 (MDA-MB-134-VI): > 5.12 µM; IC50 (NALM-6): 2.24 µM; IC50 (RPMI-8226): > 5.12 µM; IC50 (A498): > 5.12 µM; IC50 (CAL-148): > 5.12 µM; IC50 (TE-11): 1.58 µM; IC50 (TE-15): 0.279 µM; IC50 (U-698-M): > 5.12 µM
9 | COc1cc(N2CCN(C)CC2)ccc1Nc1ncc2c(n1)N(C)c1ccccc1C(=O)N2C | 1.58 µM | > 8 µM | > 8 µM | > 8 µM | > 8 µM | > 8 µM | > 8 µM | 7.97 µM | > 8 µM | > 8 µM | > 8 µM | > 8 µM | > 8 µM | > 8 µM | > 8 µM | > 8 µM | 6.48 µM | 2.23 µM | > 8 µM | 6.89 µM | IC50 (MDA-MB-134-VI): > 8 µM; IC50 (NALM-6): 4.96 µM; IC50 (RPMI-8226): > 8 µM; IC50 (A498): > 8 µM; IC50 (CAL-148): > 8 µM; IC50 (TE-15): > 8 µM; IC50 (U-698-M): > 8 µM
10 | C#Cc1cccc(Nc2ncnc3cc(OCCOC)c(OCCOC)cc23)c1 [ERLOTINIB] | > 2 µM | > 2 µM | > 2 µM | > 2 µM | > 2 µM | > 2 µM | > 2 µM | > 2 µM | > 2 µM | > 2 µM | > 2 µM | > 2 µM | > 2 µM | > 2 µM | > 2 µM | > 2 µM | > 2 µM | > 2 µM | > 2 µM | > 2 µM | IC50 (TE-15): > 2 µM; IC50 (U-698-M): > 2 µM
